From US20080286357A1, “MULTI-FUNCTIONAL PARTICULATE DELIVERY SYSTEM FOR PHARMACOLOGICALLY ACTIVE INGREDIENTS” (Balchem Corporation, priority 2007, published 2008)

Experiment: Flow and bulk density of powder blend
Type: physicochemical
Description: The procedure is described in USP<616<Bulk Density and Tapped Density.
CabOSil with ubidecarenone is co-sieved through a 30-mesh. The ProSolv HD90 and multi-functional particulate system are added. The powder mix is blended at maximum speed for ten minutes. The powder mix is then sieved through a 40-mesh. Polyplasdone Crospovidone is added, and the mixture is blended at maximum speed for two minutes Finally, Mg-stearate is added, and the mixture is blended at maximum speed for two minutes.

flow (in words): does not flow
SMILES: COC1=C(OC)C(=O)C(C/C=C(\C)CC/C=C(\C)CC/C=C(\C)CC/C=C(\C)CC/C=C(\C)CC/C=C(\C)CC/C=C(\C)CC/C=C(\C)CC/C=C(\C)CCC=C(C)C)=C(C)C1=O [Ubidecarenone]
